Experimental data: patent publication US4570006A, “Amidine compound, process for producing same and anti-complement agent comprising same” (Torii & Co. Ltd., priority 1981, dated 1986)

Experiments:
Clr = target: T1, Clr (Homo sapiens, UniProt P00736); assay: Anti-Cl esterase activity, Clr (AAME hydrolysis); assay type: biochemical; details: hydrolysis of AAME; read-out: Anti-Cl activity, Clr (ID50)
T1 sequence (P00736 464-705 limits assumed): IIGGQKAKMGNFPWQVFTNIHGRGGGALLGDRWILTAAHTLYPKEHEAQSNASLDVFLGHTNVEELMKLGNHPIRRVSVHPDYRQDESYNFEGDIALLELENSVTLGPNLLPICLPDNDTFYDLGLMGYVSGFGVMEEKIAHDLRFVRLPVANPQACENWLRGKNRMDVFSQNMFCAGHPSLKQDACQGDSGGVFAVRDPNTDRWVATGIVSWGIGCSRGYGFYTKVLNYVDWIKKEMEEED
T1 sequence (P00736 18-463 limits assumed): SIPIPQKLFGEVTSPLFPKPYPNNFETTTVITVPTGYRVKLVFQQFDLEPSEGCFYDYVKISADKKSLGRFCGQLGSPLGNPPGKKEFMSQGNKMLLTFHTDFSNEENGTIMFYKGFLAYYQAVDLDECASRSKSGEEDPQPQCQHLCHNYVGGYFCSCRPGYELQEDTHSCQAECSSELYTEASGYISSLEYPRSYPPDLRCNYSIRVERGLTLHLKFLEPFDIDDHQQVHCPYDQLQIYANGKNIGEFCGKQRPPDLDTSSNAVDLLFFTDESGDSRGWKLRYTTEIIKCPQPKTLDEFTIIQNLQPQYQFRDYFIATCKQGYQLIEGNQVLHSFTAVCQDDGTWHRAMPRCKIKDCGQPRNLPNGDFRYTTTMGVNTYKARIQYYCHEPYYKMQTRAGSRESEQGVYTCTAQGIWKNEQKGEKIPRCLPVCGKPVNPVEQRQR
Description: The anti-Cl esterase ([…]) activity was determined according to the method of Okamura et al. [K. Okamura, M. Muramatsu and B. Fujii, Biochem. Biophys.

Thrombin = Thrombin (Homo sapiens, UniProt P00734); assay: biochemical; details: TAME hydrolysis; read-out: ID50, thrombin
Plasmin = Plasmin (Homo sapiens, UniProt P00747); assay: Anti-plasmin activity (inhibition of TAME hydrolysis); assay type: biochemical; details: read-out: ID50, plasmin
Procedure, shortened: (§1)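 Inhibition of enzymatic TAME (tosylarginine methyl ester) hydrolysis, per Muramatsu et al. Values are ID50, the molar concentration of compound inhibiting 50% of each enzyme's TAME-hydrolysing activity.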

Kallikrein = assay: Anti-kallikrein activity (inhibition of TAME hydrolysis); assay type: biochemical; details: read-out: ID50, kallikrein
Procedure, shortened: as §1

Trypsin = target: T2, Trypsin (Bos taurus, UniProt P00760); assay: Anti-trypsin activity (inhibition of TAME hydrolysis); assay type: biochemical; details: read-out: ID50, trypsin
T2 sequence (P00760 24-246): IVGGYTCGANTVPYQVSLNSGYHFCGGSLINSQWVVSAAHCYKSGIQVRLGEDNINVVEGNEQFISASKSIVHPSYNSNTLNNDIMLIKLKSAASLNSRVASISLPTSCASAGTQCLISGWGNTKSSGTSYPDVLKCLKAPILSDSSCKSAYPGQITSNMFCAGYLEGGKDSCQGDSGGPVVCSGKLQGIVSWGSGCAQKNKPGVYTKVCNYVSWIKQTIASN
Procedure, shortened: as §1

complement = assay: Inhibition of complement mediated hemolysis; assay type: cell-based
Cls = target: T3, Cls (Homo sapiens, UniProt P09871); assay: Anti-Cl esterase activity, Cls (ATEE hydrolysis); assay type: biochemical; details: hydrolysis of ATEE; read-out: Anti-Cl activity, Cls (50% inhibition)
T3 sequence (P09871 438-688 limits assumed): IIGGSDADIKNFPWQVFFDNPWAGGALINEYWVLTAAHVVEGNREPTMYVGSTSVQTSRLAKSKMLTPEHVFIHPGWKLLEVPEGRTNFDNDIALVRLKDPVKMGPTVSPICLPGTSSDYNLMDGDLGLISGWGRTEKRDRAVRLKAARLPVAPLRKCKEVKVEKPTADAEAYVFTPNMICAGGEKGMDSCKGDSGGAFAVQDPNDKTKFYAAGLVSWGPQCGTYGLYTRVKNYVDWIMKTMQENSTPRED
T3 sequence (P09871 16-437 limits assumed): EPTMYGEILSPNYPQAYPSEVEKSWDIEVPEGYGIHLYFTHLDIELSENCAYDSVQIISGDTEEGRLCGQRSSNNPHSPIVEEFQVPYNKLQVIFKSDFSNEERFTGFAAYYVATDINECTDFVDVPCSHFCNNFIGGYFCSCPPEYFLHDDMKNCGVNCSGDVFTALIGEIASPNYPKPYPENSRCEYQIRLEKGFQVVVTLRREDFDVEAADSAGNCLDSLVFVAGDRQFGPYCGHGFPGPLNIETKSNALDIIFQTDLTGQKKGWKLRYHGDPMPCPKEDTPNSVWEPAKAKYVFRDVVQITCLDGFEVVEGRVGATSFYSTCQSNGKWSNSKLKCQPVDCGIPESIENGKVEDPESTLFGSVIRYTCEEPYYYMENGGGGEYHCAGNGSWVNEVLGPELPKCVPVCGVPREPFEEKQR
Description: The anti-Cl esterase (Clr, Cls) activity was determined according to the method of Okamura et al. [K. Okamura, M. Muramatsu and B. Fujii, Biochem. Biophys. […] The figures in Table 2 have the following meanings:
Cls: Molar concentration of the test compound which inhibits 50% of the ability of Cls to hydrolyse ATEE (acetyltyrosin ethyl ester).

[1] = Toxicity, median lethal dose (LD50); details: in vivo
Masugi nephritis = assay: Therapeutic experiment on Masugi's nephritis (protein content of urine); assay type: in vivo; details: rats; for Percentage inhibition (decrease in protein content of urine): methanesulfonate, oral 100 mg/kg twice a day, eight days
Source text: The protein content of the animal's urine is used as the parameter for the progress of Masugi nephritis. […] From the result, it may be said that the compound of this invention having a Cl-esterase inhibitory activity is useful as a remedy for the glomerulonephritis and is also useful as a remedy for autoimmune diseases inclusive of glomerulonephritis.
Experimental nephritis were induced in rats by intravenous injection of nephrotoxin prepared according to the method of Shibata et al. ["Experimental Immunoallergy.", p. 664 (1971), Bunkodo, Tokyo]. Each member of the medicine administered group had been orally administered with methanesulfonate of Compound No. 69 at a dose rate of 100 mg/kg body weight, twice a day, for eight consecutive days. On the second day from the beginning of medicine administration, nephrotoxin was intravenously administered. The effectiveness was evaluated by determining the difference in protein content of urine between the nephritic group (control group) and the medicine administered group on the 6th day (5th day after the administration of nephrotoxin) and 9th day from the beginning of medicine administration.
The percentage inhibition indicates the degree of decrease in protein content of urine of the medicine administered group as compared with the control group.

Sequence of Plasmin (P00747 581-810 limits assumed, species assumed): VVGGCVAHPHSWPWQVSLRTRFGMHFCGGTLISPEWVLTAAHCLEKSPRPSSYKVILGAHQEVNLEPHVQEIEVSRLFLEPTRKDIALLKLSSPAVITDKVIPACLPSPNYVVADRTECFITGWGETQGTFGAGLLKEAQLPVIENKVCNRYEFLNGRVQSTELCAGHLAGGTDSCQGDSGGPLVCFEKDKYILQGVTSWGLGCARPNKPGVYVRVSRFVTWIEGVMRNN
Sequence of Plasmin (P00747 97-580 limits assumed, species assumed): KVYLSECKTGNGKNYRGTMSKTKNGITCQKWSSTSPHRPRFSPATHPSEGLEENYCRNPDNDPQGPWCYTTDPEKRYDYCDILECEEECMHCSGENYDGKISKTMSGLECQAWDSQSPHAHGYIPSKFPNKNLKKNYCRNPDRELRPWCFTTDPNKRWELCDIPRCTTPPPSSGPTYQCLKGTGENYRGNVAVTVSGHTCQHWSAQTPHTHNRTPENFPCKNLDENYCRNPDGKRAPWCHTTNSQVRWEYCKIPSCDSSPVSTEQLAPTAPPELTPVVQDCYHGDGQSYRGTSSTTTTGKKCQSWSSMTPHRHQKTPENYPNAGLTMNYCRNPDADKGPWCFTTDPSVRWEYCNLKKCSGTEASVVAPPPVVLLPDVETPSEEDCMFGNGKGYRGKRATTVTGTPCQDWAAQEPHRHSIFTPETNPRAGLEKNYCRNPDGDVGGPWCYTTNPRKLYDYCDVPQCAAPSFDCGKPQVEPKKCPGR

COC(=O)c1cc(C(=N)N)ccc1OC(=O)c1ccc(CNC(=O)OCc2ccccc2)cc1 [Compound 59]
IC50 (Clr): 2000 nM | IC50 (Thrombin): 4000 nM | IC50 (Plasmin): 70 nM | IC50 (Kallikrein): 700 nM | IC50 (Trypsin): 500 nM | Inhibition of complement mediated hemolysis (%) (complement; compound at 1 × 10^-4): 100% | Inhibition of complement mediated hemolysis (%) (complement; compound at 1 × 10^-5): 100% | Inhibition of complement mediated hemolysis (%) (complement; compound at 1 × 10^-6): 76.0% | Inhibition of complement mediated hemolysis (%) (complement; compound at 1 × 10^-7): 15.6% | IC50 (Cls): 300 nM

COC(=O)c1cc(C(=N)N)ccc1OC(=O)c1ccc(CN)cc1 [Compound 60]
IC50 (Clr): 3000 nM | IC50 (Thrombin): > 10000 nM | IC50 (Plasmin): 4000 nM | IC50 (Kallikrein): 2000 nM | IC50 (Trypsin): 1000 nM | Inhibition of complement mediated hemolysis (%) (complement; compound at 1 × 10^-4): 100% | Inhibition of complement mediated hemolysis (%) (complement; compound at 1 × 10^-5): 100% | Inhibition of complement mediated hemolysis (%) (complement; compound at 1 × 10^-6): 89.8% | Inhibition of complement mediated hemolysis (%) (complement; compound at 1 × 10^-7): 44.4% | IC50 (Cls): 800 nM

N=C(N)c1ccc(OC(=O)c2ccc(CNC(=O)OCc3ccccc3)cc2)c([N+](=O)[O-])c1 [Compound 61]
IC50 (Clr): 400 nM | IC50 (Thrombin): 400 nM | IC50 (Plasmin): 200 nM | IC50 (Kallikrein): 1000 nM | IC50 (Trypsin): 200 nM | Inhibition of complement mediated hemolysis (%) (complement; compound at 1 × 10^-4): 98.6% | Inhibition of complement mediated hemolysis (%) (complement; compound at 1 × 10^-5): 100% | Inhibition of complement mediated hemolysis (%) (complement; compound at 1 × 10^-6): 98.0% | Inhibition of complement mediated hemolysis (%) (complement; compound at 1 × 10^-7): 76.1% | IC50 (Cls): 300 nM

N=C(N)c1ccc(OC(=O)c2ccc(CN)cc2)c([N+](=O)[O-])c1 [Compound 62]
IC50 (Clr): 500 nM | IC50 (Thrombin): 500000 nM | IC50 (Plasmin): 3000 nM | IC50 (Kallikrein): 2000 nM | IC50 (Trypsin): 500 nM | Inhibition of complement mediated hemolysis (%) (complement; compound at 1 × 10^-4): 100% | Inhibition of complement mediated hemolysis (%) (complement; compound at 1 × 10^-5): 100% | Inhibition of complement mediated hemolysis (%) (complement; compound at 1 × 10^-6): 100% | Inhibition of complement mediated hemolysis (%) (complement; compound at 1 × 10^-7): 95.4% | IC50 (Cls): 600 nM

CN(C)c1ccc(C(=O)Oc2ccc(C(=N)N)cc2C(=O)c2ccccc2)cc1 [Compound 66, 4-amidino-2-benzoylphenyl 4-dimethylaminobenzoate]
IC50 (Clr): 3000 nM | IC50 (Thrombin): 200 nM | IC50 (Plasmin): 400 nM | IC50 (Kallikrein): 200 nM | IC50 (Trypsin): 10 nM | Inhibition of complement mediated hemolysis (%) (complement; compound at 1 × 10^-4): 99.1% | Inhibition of complement mediated hemolysis (%) (complement; compound at 1 × 10^-5): 96.4% | Inhibition of complement mediated hemolysis (%) (complement; compound at 1 × 10^-6): 41.7% | Inhibition of complement mediated hemolysis (%) (complement; compound at 1 × 10^-7): 0% | IC50 (Cls): 40 nM

N=C(N)Nc1ccc(C(=O)Oc2ccc(C(=N)N)cc2C(=O)c2ccccc2)cc1 [Compound 69, 4-amidino-2-benzoylphenyl 4-guanidinobenzoate]
IC50 (Clr): 2000 nM | IC50 (Thrombin): 200 nM | LD50 ([1]; ip): 192 mg/kg | LD50 ([1]; po): 1700 mg/kg | Percentage inhibition (decrease in protein content of urine) (Masugi nephritis; 5th day): 81% | Percentage inhibition (decrease in protein content of urine) (Masugi nephritis; 8th day): 39% | protein content of urine, Masugi nephritis (Masugi nephritis; result in words): distinctly decreased the protein content of urine | IC50 (Plasmin): 2000 nM | IC50 (Kallikrein): 400 nM | IC50 (Trypsin): 80 nM | Inhibition of complement mediated hemolysis (%) (complement; compound at 1 × 10^-4): 100% | Inhibition of complement mediated hemolysis (%) (complement; compound at 1 × 10^-5): 99.6% | Inhibition of complement mediated hemolysis (%) (complement; compound at 1 × 10^-6): 86.5% | Inhibition of complement mediated hemolysis (%) (complement; compound at 1 × 10^-7): 7.2% | IC50 (Cls): 400 nM

N=C(N)Nc1ccc(C(=O)Oc2ccc(C(=N)N)cc2[N+](=O)[O-])cc1 [Compound 70, 4-amidino-2-nitrophenyl 4-guanidinobenzoate]
IC50 (Clr): 3000 nM | IC50 (Thrombin): 500 nM | LD50 ([1]; ip): 200 mg/kg | LD50 ([1]; po): 2500 mg/kg | IC50 (Plasmin): 700 nM | IC50 (Kallikrein): 40000 nM | IC50 (Trypsin): 30 nM | Inhibition of complement mediated hemolysis (%) (complement; compound at 1 × 10^-4): 100% | Inhibition of complement mediated hemolysis (%) (complement; compound at 1 × 10^-5): 100% | Inhibition of complement mediated hemolysis (%) (complement; compound at 1 × 10^-6): 97.0% | Inhibition of complement mediated hemolysis (%) (complement; compound at 1 × 10^-7): 46.1% | IC50 (Cls): 200 nM

COc1cc(C(=N)N)ccc1OC(=O)c1ccc(NC(=N)N)cc1 [Compound 71]
IC50 (Clr): 4000 nM | IC50 (Thrombin): 2000 nM | IC50 (Plasmin): 2000 nM | IC50 (Kallikrein): 30000 nM | IC50 (Trypsin): 40 nM | Inhibition of complement mediated hemolysis (%) (complement; compound at 1 × 10^-4): 90.6% | Inhibition of complement mediated hemolysis (%) (complement; compound at 1 × 10^-5): 35.3% | Inhibition of complement mediated hemolysis (%) (complement; compound at 1 × 10^-6): 2.7% | Inhibition of complement mediated hemolysis (%) (complement; compound at 1 × 10^-7): 9.0% | IC50 (Cls): 700 nM
